Test results as given in patent publication US11446279B2 (priority 2017, dated 2022).
≈ marks a conversion by molar mass, not a printed value. Like-named read-outs stand apart in the source and are kept apart here.

Experiments:
E. coli SFGH 207 = test: MIC against E. coli SFGH 207; format: cell-based, Escherichia coli
E. coli (KAN) = test: microbe, parasite or virus in culture; format: cell-based, Escherichia coli
A. baumannii (Resistant) = test: MIC against A. baumannii (Resistant); format: cell-based, Acinetobacter baumannii
MRSA = test: MIC against MRSA; format: cell-based, Methicillin-resistant Staphylococcus aureus
A. baumannii (Sensitive) = test: MIC against A. baumannii (Sensitive); format: cell-based, Acinetobacter baumannii
[1] = test system: drug-resistant GNBs such as Pseudomonas aeruginosa, Escherichia coli, and Acinetobacter baumannii; test: Growth inhibition of drug-resistant GNBs; format: cell-based; conditions: in words; E. coli species, A. baumannii, P. aeruginosa / gram-negative bacteria
P. aeruginosa SFGH 266 = test: MIC against P. aeruginosa SFGH 266; format: cell-based, Pseudomonas aeruginosa
P. aeruginosa SFGH 427 = test: MIC against P. aeruginosa SFGH 427; format: cell-based, Pseudomonas aeruginosa
E. coli (AMP) = test: MIC against E. coli (AMP); format: cell-based, Escherichia coli
E. coli ATCC25922 = test: MIC against E. coli ATCC25922; format: cell-based, Escherichia coli
[2] = range stated jointly for MRSA and E. coli (ATCC 25922)

## O=[N+]([O-])c1sccc1S(=O)(=O)F [compound 1, 2-nitrothiophene-3-sulfonyl fluoride]
E. coli SFGH 207
  MICs: 42 µg/mL
E. coli (KAN); E. coli (KAN)
  MICs: 0.66 µg/mL
A. baumannii (Resistant)
  MICs: 42 µg/mL
MRSA; MRSA
  MICs: 5.28 µg/mL
MRSA; [2]
  MIC: 1 to 5 µg/mL
A. baumannii (Sensitive)
  MICs: 21 µg/mL
[1]
  antibacterial activity: active
P. aeruginosa SFGH 266
  MICs: 42 µg/mL
P. aeruginosa SFGH 427
  MICs: 84 µg/mL
E. coli (AMP)
  MICs: 10.6 µg/mL
E. coli ATCC25922; E. coli ATCC25922
  MICs: 1.32 µg/mL
E. coli ATCC25922; [2]
  MIC: 1 to 5 µg/mL

## O=C1CN(/N=C/c2ccc([N+](=O)[O-])o2)C(=O)N1 [nitrofurantoin 7, nitrofurantoin, reference compound]
E. coli SFGH 207; Escherichia coli, SFGH207
  MIC: 6 µg/mL (≈ 25.2 µM)
E. coli (KAN); Escherichia coli, read-out: MICs
  MIC: 0.37 µg/mL (≈ 1.55 µM)
A. baumannii (Resistant); Acinetobacter baumannii
  MIC: > 95 µg/mL
MRSA; Staphylococcus aureus, ATCC 25922 / MRSA, range stated jointly for MRSA and E. coli (ATCC 25922), read-out: MIC
  MIC: 5 to 12 µg/mL (≈ 21 to 50.4 µM)
MRSA; Staphylococcus aureus, MRSA, read-out: MICs
  MIC: 12 µg/mL (≈ 50.4 µM)
A. baumannii (Sensitive); Acinetobacter baumannii
  MIC: > 95 µg/mL
P. aeruginosa SFGH 266; Pseudomonas aeruginosa, SFGH266
  MIC: > 95 µg/mL
P. aeruginosa SFGH 427; Pseudomonas aeruginosa, SFGH427
  MIC: > 95 µg/mL
E. coli (AMP); Escherichia coli
  MIC: 6 µg/mL (≈ 25.2 µM)
E. coli ATCC25922; Escherichia coli, ATCC25922, range stated jointly for MRSA and E. coli (ATCC 25922), read-out: MIC
  MIC: 5 to 12 µg/mL (≈ 21 to 50.4 µM)
E. coli ATCC25922; Escherichia coli, E. coli ATCC25922, read-out: MICs
  MIC: 3 µg/mL (≈ 12.6 µM)
